Assay results from US9920030B2 (priority 2006, dated 2018).
Like-named read-outs stand apart in the source and are kept apart here.

Assays:
Assay type in all cases: in vivo
[1] = test system: Plasmopara vilicola (the causal agent of grape downy mildew); assay: Test A: grape downy mildew, test suspension sprayed on grape seedlings after inoculation, visual disease rating
Description: General protocol for preparing test suspensions for Test A-C: The test compounds were first dissolved in acetone in an amount equal to 3% of the final volume and then suspended at the desired concentration (in ppm) in acetone and purified water (50/50 mix by volume) containing 250 ppm of the surfactant Trem® 014 (polyhydric alcohol esters). The resulting test suspensions were then used in Tests A-C. Spraying a 200 ppm test suspension to the point of run-off on the test plants was equivalent to a rate of 500 g/ha.
Grape seedlings were inoculated with a spore suspension of Plasmopara vilicola (the causal agent of grape downy mildew) and incubated in a saturated atmosphere at 20° C. for 24 h. After a short drying period, the test suspension was sprayed to the point of run-off on the grape seedlings, which were then moved to a growth chamber at 20° C. for 5 days, after which time the grape seedling were placed back into a saturated atmosphere at 20° C. for 24 h. Upon removal, visual disease ratings were made.
Results for Tests A-C are given in Table A. In the table, a rating of 100 indicates 100% disease control and a rating of 0 indicates no disease control (relative to the controls). A dash (-) indicates no test results.

[2] = test system: Phytophthora infestans (the causal agent of tomato late blight); assay: whole plant or invertebrate
[3] = test system: Phytophthora infestans (the causal agent of tomato late blight); assay: whole plant or invertebrate; remark: listed apart in the source
[4] = compounds without asterisk (application rate not given), 100 = 100% disease control, 0 = no control relative to the controls

| Compound | Percent Disease Control, Test A [1, 4] [%] | Percent Disease Control, Test B [2, 4] [%] | Percent Disease Control, Test C [3, 4] [%] | Percent Disease Control, Test A ([1]; * tested at 40 ppm) [%] | Percent Disease Control, Test B ([2]; * tested at 40 ppm) [%] | Percent Disease Control, Test C ([3]; * tested at 40 ppm) [%] | other results |
| --- | --- | --- | --- | --- | --- | --- | --- |
| Cc1cc(C(F)(F)F)nn1CC(=O)N1CCC(c2nc(-c3ccn(-c4ccccc4)n3)cs2)CC1 [Compound 76] | 72 | 92 | 67 | – | – | – | – |
| Cc1ccc(-n2cc(-c3csc(C4CCN(C(=O)Cn5nc(C(F)(F)F)cc5C)CC4)n3)nn2)cc1 [Compound 77] | 87 | 100 | 99 | – | – | – | – |
| Cc1cc(C(F)(F)F)nn1CC(=O)N1CCC(c2nc(-c3ccnn3-c3ccccc3)cs2)CC1 [Compound 78] | 0 | 0 | 0 | – | – | – | – |
| Cc1cc(C(F)(F)F)nn1CC(=O)N1CCC(c2nc(C3=NO[C@@H](c4ccccc4F)C3)cs2)CC1 [Compound 79] | 100 | 100 | 66 | – | – | – | – |
| COC1ON=C(c2csc(C3CCN(C(=O)Cn4nc(C(F)(F)F)cc4C)CC3)n2)CC1c1ccccc1 (stereo not drawn) [Compound 81] | 93 | 92 | 77 | – | – | – | – |
| Cc1cc(C(F)(F)F)nn1CC(=O)N1CCC(c2nc(-c3nn(-c4ccccc4)c(=O)[nH]3)cs2)CC1 [Compound 82] | 0 | 88 | 26 | – | – | – | – |
| Cc1cc(C(F)(F)F)nn1CC(=O)N1CCC(c2nc(-c3ccc(-c4ccccc4)o3)cs2)CC1 [Compound 83] | 46 | 92 | 0 | – | – | – | – |
| Cc1cc(C(F)(F)F)nn1CC(=O)N1CCC(c2nc(-c3csc(-c4ccccc4)n3)cs2)CC1 [Compound 84] | 67 | 33 | 0 | – | – | – | – |
| Cc1cc(C(F)(F)F)nn1CC(=O)N1CCC(c2nc(-c3ccc(-c4ccccc4)s3)cs2)CC1 [Compound 85] | 85 | 70 | 0 | – | – | – | – |
| Cc1cc(C(F)(F)F)nn1CC(=O)N1CCC(c2nc(-c3cc(-c4ccc(Cl)cc4Cl)no3)cs2)CC1 [Compound 86] | 83 | 79 | 14 | – | – | – | – |
| Cc1cc(C(F)(F)F)nn1CC(=O)N1CCC(c2nc(-c3cc(-c4ccc(Cl)c(Cl)c4)no3)cs2)CC1 [Compound 87] | 76 | 44 | 0 | – | – | – | – |
| Cc1cc(C(F)(F)F)nn1CC(=O)N1CCC(c2nc(C3=NOC(c4ccc5ccccc5c4)C3)cs2)CC1 (stereo not drawn) [Compound 88] | – | – | – | 99 | 100 | 99 | – |
| Cc1cc(C(F)(F)F)nn1CC(=O)N1CCC(c2nc(C3=NOC(c4ccc(C(C)(C)C)cc4)C3)cs2)CC1 (stereo not drawn) [Compound 91] | – | – | – | 99 | 100 | 91 | – |
| Cc1cc(C(F)(F)F)nn1CC(=O)N1CCC(c2nc(C3=NCC(c4ccccc4)N3)cs2)CC1 (stereo not drawn) [Compound 92] | – | – | – | 13 | 33 | 9 | – |
| Cc1cc(C(F)(F)F)nn1CC(=O)N1CCC(c2nc(C3=NOC(c4ccc(F)cc4)C3)cs2)CC1 (stereo not drawn) [Compound 96] | – | – | – | 100 | 100 | 99 | – |
| Cc1cc(C(F)(F)F)nn1CC(=O)N1CCC(c2nc(C3=NOC(c4ccc(C(F)(F)F)cc4)C3)cs2)CC1 (stereo not drawn) [Compound 97] | – | – | – | 99 | 100 | 95 | – |
| Cc1cc(C(F)(F)F)nn1CC(=O)N1CCC(c2nc(C3=NOC(c4ccccn4)C3)cs2)CC1 (stereo not drawn) [Compound 98, 1-[4-[4-(4,5-dihydro-5-(2-pyridinyl)-3-isoxazolyl)-2-thiazolyl]-1-piperidinyl]-2-[5-methyl-3-(trifluoromethyl)-1H-pyrazol-1-yl]ethanone] | – | – | – | – | – | – | pest or weed control at 40 ppm ([1]; Plasmopara, 144 h, * tested at 40 ppm, read-out: Percent Disease Control, Test A): 77%; pest or weed control at 40 ppm ([2]; Phytophthora infestans, 144 h, read-out: Percent Disease Control, Test B): 100%; pest or weed control at 40 ppm ([3]; Phytophthora infestans, 96 h, read-out: Percent Disease Control, Test C): 99% |
| Cc1cc(C(F)(F)F)nn1CC(=O)N1CCC(c2nc(C3=NC4CCCCC4N3)cs2)CC1 (stereo not drawn) [Compound 99] | 31 | 33 | 0 | – | – | – | – |
| Cc1cc(C(F)(F)F)nn1CC(=O)N1CCC(c2nc(C3=NOC(c4ccccc4)(C(C)C)C3)cs2)CC1 (stereo not drawn) [Compound 100] | – | – | – | 100 | 100 | 99 | – |
